What all share (assay type): in vivo
In test [1] the test system is Alopecurus myosuroides. Briefly: Pre-emergence herbicidal effect. To be noted: 320 g/ha, scored visually after 3 weeks vs untreated controls, 100% = plants have died. In outline:
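Seeds sown in sandy loam and covered; WP- or EC-formulated compounds sprayed onto covering soil at 600–800 L/ha water with 0.2% wetting agent. Greenhouse-grown; damage scored visually after 3 weeks versus untreated controls (100% = plants died, 0% = like control).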

In test [2] the test system is Avena fatua. The test can be described thus: Pre-emergence herbicidal effect. As to conditions: 320 g/ha, scored visually after 3 weeks vs untreated controls, 100% = plants have died. In short, it runs like this: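 Weed and crop seeds sown in sandy loam were treated pre-emergence on the soil surface with WP or EC formulations at a water rate of 600 to 800 L/ha plus 0.2% wetting agent. Plants grown in a greenhouse; damage scored visually after 3 weeks as percent activity relative to untreated controls (100% = dead).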

Test [3] relates to Echinochloa crus-galli. Briefly: Pre-emergence herbicidal effect. As to conditions: 320 g/ha, scored visually after 3 weeks vs untreated controls, 100% = plants have died. In outline:
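Wettable powder or emulsion concentrate sprayed onto soil covering freshly sown seeds in sandy loam, 600 to 800 L/ha water with 0.2% wetting agent. Pots kept in greenhouse. Damage scored visually after 3 weeks against untreated controls, 0-100% activity.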

Test [4] deals with Lolium multiflorum. The test can be described thus: Pre-emergence herbicidal effect. To be noted: 320 g/ha, scored visually after 3 weeks vs untreated controls, 100% = plants have died. In short, it runs like this:
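Seeds sown in sandy loam and covered; compounds as WP or EC applied to the soil surface pre-emergence at 600 to 800 L/ha water with 0.2% wetting agent. Greenhouse growth for 3 weeks, then damage scored visually versus untreated controls (100% = plants dead, 0% = like control).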

For test [5], the system named is Setaria viridis. The test can be described thus: Pre-emergence herbicidal effect. To be noted: 320 g/ha, scored visually after 3 weeks vs untreated controls, 100% = plants have died. In outline: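 Pre-emergence: WP or EC formulations sprayed onto the soil surface over sown seeds in sandy loam at 600–800 L/ha water with 0.2% wetting agent. Plants kept in a greenhouse; damage scored visually after 3 weeks as % activity versus untreated controls (100% = dead).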

Test [6] has as its system Alopecurus myosuroides. The test can be described thus: Post-emergence herbicidal effect. As to conditions: one-leaf stage, 320 g/ha, assessed visually after about 3 weeks, 100% = plants have died. In outline: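 Monocot and dicot plants grown in sandy loam in a greenhouse were sprayed at the one-leaf stage, 2–3 weeks after sowing, with WP or EC formulations in 600–800 L/ha water plus 0.2% wetting agent. Damage scored visually after about 3 weeks versus untreated controls (0% like control, 100% dead).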

Test [7] relates to Avena fatua. Briefly: Post-emergence herbicidal effect. To be noted: one-leaf stage, 320 g/ha, assessed visually after about 3 weeks, 100% = plants have died. In outline: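 Greenhouse-grown plants in sandy loam treated at one-leaf stage, 2–3 weeks after sowing, by spraying WP or EC formulations as aqueous suspension/emulsion at 600–800 L/ha water with 0.2% wetting agent. After about 3 weeks, effect scored visually versus untreated controls (0% = like control, 100% = plants dead).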

For test [8], the system named is Echinochloa crus-galli. Briefly: Post-emergence herbicidal effect. To be noted: one-leaf stage, 320 g/ha, assessed visually after about 3 weeks, 100% = plants have died. In short, it runs like this: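 Greenhouse plants in sandy loam were sprayed at the one-leaf stage with WP or EC formulations at 600 to 800 L/ha water with 0.2% wetting agent. After about 3 weeks, damage was scored visually in % against untreated controls (100% = dead).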

Test [9] has as its system Lolium multiflorum. The test can be described thus: Post-emergence herbicidal effect. To be noted: one-leaf stage, 320 g/ha, assessed visually after about 3 weeks, 100% = plants have died. In outline: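 Plants in sandy loam treated post-emergence at one-leaf stage (2–3 weeks after sowing) with WP or EC formulations sprayed at 600–800 L/ha water plus 0.2% wetting agent. After about 3 weeks in the greenhouse, percent herbicidal action rated visually against untreated controls (100% = plants dead).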

In test [10] the test system is Setaria viridis. The test can be described thus: Post-emergence herbicidal effect. As to conditions: one-leaf stage, 320 g/ha, assessed visually after about 3 weeks, 100% = plants have died. In outline: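 Greenhouse plants grown in sandy loam were sprayed at the one-leaf stage, 2-3 weeks after sowing. Compounds were applied as WP or EC formulations in 600-800 L/ha water plus 0.2% wetting agent. About 3 weeks later, damage was scored visually against untreated controls (0% = like control, 100% = dead plants).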

With `CCc1cc(C)cc(C)c1C1=C(OC(=O)OC)C2CCOCCN2C1=O` (stereo not drawn) [Ib-1-6], in the test on Alopecurus myosuroides [1], the “Pre-emergence action ALOMY (herbicidal activity in percent)” value is listed as 100%. For the same compound, in the test with Avena fatua [2], the “Pre-emergence action AVEFA (herbicidal activity in percent)” value stood at 100%. In addition, in the test on Echinochloa crus-galli [3], the “Pre-emergence action ECHCG (herbicidal activity in percent)” value turned out to be 100%. For the same compound, in the test on Lolium multiflorum [4], the “Pre-emergence action LOLMU (herbicidal activity in percent)” value amounted to 100%. Moreover, the “Pre-emergence action SETVI (herbicidal activity in percent)” value with Setaria viridis [5] is 100%. For the same compound, the “Post-emergence effectiveness ALOMY (herbicidal action in percent)” value in the test on Alopecurus myosuroides [6] is on record as 100%. The “Post-emergence effectiveness AVEFA (herbicidal action in percent)” value with Avena fatua [7] came to 100%. In the test on Echinochloa crus-galli [8], the “Post-emergence effectiveness ECHCG (herbicidal action in percent)” value is reported as 100%. Also, the “Post-emergence effectiveness LOLMU (herbicidal action in percent)” value with Lolium multiflorum [9] was 100%. Also, in the test with Setaria viridis [10], the “Post-emergence effectiveness SETVI (herbicidal action in percent)” value worked out at 100%.
Take `CCc1cc(C)cc(CC)c1C1=C(OC(C)=O)C2CCOCCN2C1=O` (stereo not drawn) [Ib-1-4]: the “Pre-emergence action ALOMY (herbicidal activity in percent)” value in the test with Alopecurus myosuroides [1] is recorded as 100%. Also, the “Pre-emergence action AVEFA (herbicidal activity in percent)” value in the test with Avena fatua [2] was 100%. The “Pre-emergence action ECHCG (herbicidal activity in percent)” value with Echinochloa crus-galli [3] worked out at 100%. Further, the “Pre-emergence action LOLMU (herbicidal activity in percent)” value in the test on Lolium multiflorum [4] worked out at 100%. Moreover, the “Pre-emergence action SETVI (herbicidal activity in percent)” value in the test with Setaria viridis [5] turned out to be 100%. Moreover, the “Post-emergence effectiveness ALOMY (herbicidal action in percent)” value with Alopecurus myosuroides [6] was found to be 100%. Further, the “Post-emergence effectiveness AVEFA (herbicidal action in percent)” value with Avena fatua [7] amounted to 100%. Also, the “Post-emergence effectiveness ECHCG (herbicidal action in percent)” value with Echinochloa crus-galli [8] worked out at 100%. For the same compound, the “Post-emergence effectiveness LOLMU (herbicidal action in percent)” value in the test on Lolium multiflorum [9] amounted to 100%. In the test with Setaria viridis [10], the “Post-emergence effectiveness SETVI (herbicidal action in percent)” value came out at 100%.
Take `Cc1cc(C)c(C2=C(OC(=O)C(C)(C)C)C3CCOCCN3C2=O)c(C)c1` (stereo not drawn) [Ib-1-11]: in the test with Alopecurus myosuroides [1], the “Pre-emergence action ALOMY (herbicidal activity in percent)” value was 90%. Also, in the test on Avena fatua [2], the “Pre-emergence action AVEFA (herbicidal activity in percent)” value amounted to 90%. The “Pre-emergence action ECHCG (herbicidal activity in percent)” value in the test with Echinochloa crus-galli [3] came to 100%. The “Pre-emergence action LOLMU (herbicidal activity in percent)” value in the test on Lolium multiflorum [4] is listed as 100%. In addition, the “Pre-emergence action SETVI (herbicidal activity in percent)” value with Setaria viridis [5] is on record as 100%. Moreover, in the test on Alopecurus myosuroides [6], the “Post-emergence effectiveness ALOMY (herbicidal action in percent)” value turned out to be 100%. In the test on Avena fatua [7], the “Post-emergence effectiveness AVEFA (herbicidal action in percent)” value came out at 100%. The “Post-emergence effectiveness ECHCG (herbicidal action in percent)” value in the test with Echinochloa crus-galli [8] is 100%. Besides, in the test with Lolium multiflorum [9], the “Post-emergence effectiveness LOLMU (herbicidal action in percent)” value came to 100%. The “Post-emergence effectiveness SETVI (herbicidal action in percent)” value with Setaria viridis [10] is 100%.
`CCc1cccc(C)c1C1=C(O)C2CCOCCN2C1=O` (stereo not drawn) [Ia-1-4]: the “Pre-emergence action ALOMY (herbicidal activity in percent)” value in the test with Alopecurus myosuroides [1] is 80%. In addition, in the test with Avena fatua [2], the “Pre-emergence action AVEFA (herbicidal activity in percent)” value is given as 100%. In the test with Echinochloa crus-galli [3], the “Pre-emergence action ECHCG (herbicidal activity in percent)” value was 100%. In the test with Lolium multiflorum [4], the “Pre-emergence action LOLMU (herbicidal activity in percent)” value is 100%. Also, the “Pre-emergence action SETVI (herbicidal activity in percent)” value in the test with Setaria viridis [5] worked out at 100%. Moreover, in the test on Alopecurus myosuroides [6], the “Post-emergence effectiveness ALOMY (herbicidal action in percent)” value came out at 100%. For the same compound, in the test with Avena fatua [7], the “Post-emergence effectiveness AVEFA (herbicidal action in percent)” value is on record as 100%. The “Post-emergence effectiveness ECHCG (herbicidal action in percent)” value in the test with Echinochloa crus-galli [8] is listed as 100%. The “Post-emergence effectiveness LOLMU (herbicidal action in percent)” value in the test with Lolium multiflorum [9] came to 100%. Also, the “Post-emergence effectiveness SETVI (herbicidal action in percent)” value in the test with Setaria viridis [10] is given as 100%.
On to `CCOC(=O)OC1=C(c2c(C)cc(C)cc2C)C(=O)N2CCOCCC12` (stereo not drawn) [Ib-1-10], for which, in the test with Alopecurus myosuroides [1], the “Pre-emergence action ALOMY (herbicidal activity in percent)” value stood at 80%. Besides, the “Pre-emergence action AVEFA (herbicidal activity in percent)” value in the test on Avena fatua [2] amounted to 90%. Moreover, the “Pre-emergence action ECHCG (herbicidal activity in percent)” value in the test on Echinochloa crus-galli [3] came to 100%. For the same compound, in the test on Lolium multiflorum [4], the “Pre-emergence action LOLMU (herbicidal activity in percent)” value worked out at 100%. Also, the “Pre-emergence action SETVI (herbicidal activity in percent)” value in the test with Setaria viridis [5] amounted to 100%. The “Post-emergence effectiveness ALOMY (herbicidal action in percent)” value in the test on Alopecurus myosuroides [6] came to 100%. The “Post-emergence effectiveness AVEFA (herbicidal action in percent)” value with Avena fatua [7] worked out at 100%. In the test on Echinochloa crus-galli [8], the “Post-emergence effectiveness ECHCG (herbicidal action in percent)” value is 100%. In the test with Lolium multiflorum [9], the “Post-emergence effectiveness LOLMU (herbicidal action in percent)” value worked out at 100%. Also, the “Post-emergence effectiveness SETVI (herbicidal action in percent)” value in the test with Setaria viridis [10] was 100%.
As to `CC(=O)OC1=C(c2c(C)cc(C)cc2C)C(=O)N2CCOCCC12` (stereo not drawn) [Ib-1-12], the “Pre-emergence action ALOMY (herbicidal activity in percent)” value in the test on Alopecurus myosuroides [1] came out at 100%. In addition, the “Pre-emergence action AVEFA (herbicidal activity in percent)” value in the test on Avena fatua [2] is reported as 90%. The “Pre-emergence action ECHCG (herbicidal activity in percent)” value with Echinochloa crus-galli [3] was 100%. Also, the “Pre-emergence action LOLMU (herbicidal activity in percent)” value in the test with Lolium multiflorum [4] was found to be 100%. The “Pre-emergence action SETVI (herbicidal activity in percent)” value with Setaria viridis [5] came to 100%. In addition, the “Post-emergence effectiveness ALOMY (herbicidal action in percent)” value with Alopecurus myosuroides [6] is 100%. Also, the “Post-emergence effectiveness AVEFA (herbicidal action in percent)” value in the test with Avena fatua [7] came to 100%. Besides, in the test with Echinochloa crus-galli [8], the “Post-emergence effectiveness ECHCG (herbicidal action in percent)” value is listed as 100%. Further, the “Post-emergence effectiveness LOLMU (herbicidal action in percent)” value in the test with Lolium multiflorum [9] was 100%. For the same compound, in the test with Setaria viridis [10], the “Post-emergence effectiveness SETVI (herbicidal action in percent)” value is 100%.

These data come from patent publication US20190119298A1, “FUSED 3-PHENYLTETRAMIC ACID DERIVATIVES HAVING HERBICIDAL ACTION” (Bayer CropScience Aktiengesellschaft, priority 2016, published 2019).
